Assay results reported in patent US4160016A, “Receptor fluorescent immunoassay” (Syva Company, priority 1977, dated 1979).
Where “and” joins values, the source holds several entries; their conditions need not be identical. Identical values can stand only once.

Experiments:
Type in all cases: biochemical
[1] = tested on: Anti-Fluorescein and Anti-Morphine; assay: Table I fluorescence readings: fluorescein-morphine with antifluorescein and/or anti-morphine, with and without codeine
Experimental: In order to establish the utility of the subject compounds, the following assays were carried out. […] The fluorometer employed was a Perkin-Elmer MPF-2a. Antibodies to the fluorescers had been prepared according to normal procedures. The bovine serum albumin conjugates were injected into sheep, and after appropriate periods of time, the antibodies harvested according to conventional techniques. For typical methods of obtaining antibodies, see Microbiology, Hober Medical Division, Harper and Rowe, 1969; Landsteiner, Specificity of Seriological Reactions, Dover Publications, New York, 1962; Kabat, et al, supra; and Williams, et al, Methods in Immunology and Immunochemistry, Vol. 1, Academic Press, New York, 1967.
(§1) The reagents which were employed were as follows: FLUMO (fluorescein-morphine conjugate, Example V) was 3× 10^-6 M in water; antifluorescein was 5.6× 10^-6 M in binding sites, in water, 0.05M phosphate, pH 8.0; anti-morphine was 2× 10^-4 M in binding sites, 0.05M tris-HCl, pH 8.0, in saline solution; buffer was Tris/saline 0.05M/l, pH 8,0. Opiate solutions had 1,000 μg/ml of codeine. The solution was then diluted to a final volume of 4 ml with buffer.
(§2) All of the determinations were made at a sensitivity setting on the instrument of 4. Excitation light was 460 nm and the emitted light read at 516 nm, with a band width of 10 nm.
(§3) Where a reading is given but the absence of any material is indicated, only buffer was present in the cell. The reading times indicate the interval of time from the time of the first reading to the reading for the result which is reported, the first reading being made within as short an interval as possible of the mixing.

Anti-Morphine [2] = assay: Fluorescence assay for codeine with morphine-fluorescein conjugate (Ex. V) and antimorphine (Table 2)
Description: The following tables indicate the results.

Anti-Morphine [3] = assay: Fluorescence quenching of fluorescein-morphine by anti-morphine alone (Table I, cell No. 3); conditions: for Signal Intensity: fluorescein-morphine 5 μl + anti-morphine 5 μl
Experimental: as §1, §2, §3

SMILES: COc1ccc2c3c1O[C@H]1[C@@H](O)C=C[C@H]4[C@@H](C2)N(C)CC[C@@]341 [Codeine, codeine, reference compound]
- change in signal intensity ([1]; cell No. 1, codeine added to mixture of the two antibodies, over 90 minutes): 0.5 units
- change in signal intensity ([1]; cell No. 3, both antibodies with codeine and fluorescein-morphine, over 90 minutes): 6.5 units
- Signal Intensity ([1]; codeine 5 μl + anti-fluorescein + anti-morphine, no fluorescein-morphine, 90 min, cell No. 1): 6
- Signal Intensity ([1]; codeine 5 μl + anti-fluorescein + anti-morphine, no fluorescein-morphine, first reading, cell No. 1): 5.5
- Signal Intensity ([1]; codeine 5 μl added to fluorescein-morphine + anti-fluorescein + anti-morphine, 90 min, cell No. 3): 16
- Signal Intensity ([1]; codeine 5 μl added to fluorescein-morphine + anti-fluorescein + anti-morphine, first reading, cell No. 3): 20
- change in fluorescence ([1]; codeine introduced into mixture of fluorescein-morphine and antibodies to fluorescein and morphine): a detectable change in fluorescence is obtained
- fluorescence quenched by the anti-morphine that is recovered with the addition of codeine (Anti-Morphine [2]): about 30%
- Fluorescence Signal (Anti-Morphine [2]; Ex. V + anti-morphine + codeine 1.9 × 10^-7 M): 62.5 arbitrary units
- Fluorescence Signal (Anti-Morphine [2]; Ex. V + anti-morphine + codeine 6.7 × 10^-7 M): 64.5 arbitrary units
- Fluorescence Signal (Anti-Morphine [2]; Ex. V + anti-morphine + codeine 9.5 × 10^-8 M): 61 arbitrary units
- concentration of codeine detectible (Anti-Morphine [2]; with the particular materials employed): about 10^-7

SMILES: CN1CC[C@]23c4c5ccc(OCC(=O)Nc6ccc7c(c6)C6(OC7=O)c7ccc(O)cc7Oc7cc(O)ccc76)c4O[C@H]2[C@@H](O)C=C[C@H]3[C@H]1C5 [Ex. V]
- change in signal intensity ([1]; cell No. 2, no codeine, in the first 5 minutes): 1.5 units
- change in signal intensity ([1]; cell No. 2, no codeine, over 90 minutes): 2.5 units
- Signal Intensity ([1]; fluorescein-morphine 5 μl + anti-fluorescein 5 μl + anti-morphine 5 μl, first reading, cells No. 2 and 3): 25 and 23
- Signal Intensity ([1]; fluorescein-morphine 5 μl + anti-fluorescein 5 μl, cell No. 2): 21
- Signal Intensity ([1]; fluorescein-morphine 5 μl alone, buffer pH 8.0, ex 460 nm, em 516 nm, cells No. 2 and 3): 62 and 46
- Signal Intensity ([1]; fluorescein-morphine + anti-fluorescein + anti-morphine (5 μl each), 5 min, cells No. 2 and 3): 26.5 and 22.5
- Signal Intensity ([1]; fluorescein-morphine + anti-fluorescein + anti-morphine (5 μl each), 90 min, cell No. 2): 27.5
- Signal Intensity (Anti-Morphine [3]; 5 min): 35
- Signal Intensity (Anti-Morphine [3]; first reading): 35.5
- reduction in signal intensity (Anti-Morphine [3]; fluorescein-morphine combined with antimorphine): approximately 25%
- Fluorescence Signal (Anti-Morphine [2]; Ex. V 1.9 × 10^-8 M alone): 79 arbitrary units
